Reference: ChEMBL document CHEMBL1130549, “Dihydroisoquinolone RGD mimics. Exploration of the aspartate isostere” (Bioorg Med Chem Lett, 1997)
Positions of bridges follow the written chain, without caps; N, C: chain ends. Non-standard residues stand in square brackets, D forms with d. Residues, ends and D or L forms follow the SMILES beside them. Pen = CC(C)(S)[C@H](N)C(=O)O; Mpa = O=C(O)CCS

Columns and labels:
Format in all cases: protein-complex assay
[1] = target: T1, Integrin alpha-IIb/beta-3 (Homo sapiens, UniProt P05106+P08514); assay: Inhibition of fibrinogen binding to purified human alpha IIb beta-3 integrin by 50% in an ELISA test
[2] = target: T1, Integrin alpha-IIb/beta-3; assay: Inhibition of fibrinogen binding to purified Human alphaIIb-beta3 integrin in ELISA with 0.1% bovine serum albumin (BSA)
[3] = target: T1, Integrin alpha-IIb/beta-3; assay: Inhibition of fibrinogen binding to purified Human alphaIIb-beta3 integrin in ELISA with 1% bovine serum albumin (BSA)
[4] = target: T1, Integrin alpha-IIb/beta-3; assay: Inhibition of fibrinogen binding to purified Human alphaIIb-beta3 integrin in ELISA with 4.5% bovine serum albumin (BSA)

T1 sequence (P05106 27-788 limits assumed): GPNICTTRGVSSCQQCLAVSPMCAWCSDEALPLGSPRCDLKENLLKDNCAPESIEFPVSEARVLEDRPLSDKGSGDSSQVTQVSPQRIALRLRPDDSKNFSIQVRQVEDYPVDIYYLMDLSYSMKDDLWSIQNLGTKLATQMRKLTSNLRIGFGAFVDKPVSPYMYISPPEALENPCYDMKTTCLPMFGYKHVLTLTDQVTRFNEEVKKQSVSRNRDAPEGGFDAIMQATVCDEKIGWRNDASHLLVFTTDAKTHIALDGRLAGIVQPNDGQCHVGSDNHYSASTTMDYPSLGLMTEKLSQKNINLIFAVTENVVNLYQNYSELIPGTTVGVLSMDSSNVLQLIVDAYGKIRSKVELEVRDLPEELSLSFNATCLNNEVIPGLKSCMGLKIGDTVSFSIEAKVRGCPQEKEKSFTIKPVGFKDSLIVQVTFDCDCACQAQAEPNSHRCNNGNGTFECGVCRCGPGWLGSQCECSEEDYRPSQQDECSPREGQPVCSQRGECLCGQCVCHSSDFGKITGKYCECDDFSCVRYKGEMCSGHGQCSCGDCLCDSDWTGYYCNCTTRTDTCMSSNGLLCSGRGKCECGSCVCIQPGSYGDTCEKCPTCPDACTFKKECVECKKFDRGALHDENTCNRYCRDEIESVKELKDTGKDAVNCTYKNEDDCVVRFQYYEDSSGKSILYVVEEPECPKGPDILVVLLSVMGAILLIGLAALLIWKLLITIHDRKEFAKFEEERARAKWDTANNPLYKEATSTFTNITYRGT
T1 sequence (P08514 32-887 limits assumed): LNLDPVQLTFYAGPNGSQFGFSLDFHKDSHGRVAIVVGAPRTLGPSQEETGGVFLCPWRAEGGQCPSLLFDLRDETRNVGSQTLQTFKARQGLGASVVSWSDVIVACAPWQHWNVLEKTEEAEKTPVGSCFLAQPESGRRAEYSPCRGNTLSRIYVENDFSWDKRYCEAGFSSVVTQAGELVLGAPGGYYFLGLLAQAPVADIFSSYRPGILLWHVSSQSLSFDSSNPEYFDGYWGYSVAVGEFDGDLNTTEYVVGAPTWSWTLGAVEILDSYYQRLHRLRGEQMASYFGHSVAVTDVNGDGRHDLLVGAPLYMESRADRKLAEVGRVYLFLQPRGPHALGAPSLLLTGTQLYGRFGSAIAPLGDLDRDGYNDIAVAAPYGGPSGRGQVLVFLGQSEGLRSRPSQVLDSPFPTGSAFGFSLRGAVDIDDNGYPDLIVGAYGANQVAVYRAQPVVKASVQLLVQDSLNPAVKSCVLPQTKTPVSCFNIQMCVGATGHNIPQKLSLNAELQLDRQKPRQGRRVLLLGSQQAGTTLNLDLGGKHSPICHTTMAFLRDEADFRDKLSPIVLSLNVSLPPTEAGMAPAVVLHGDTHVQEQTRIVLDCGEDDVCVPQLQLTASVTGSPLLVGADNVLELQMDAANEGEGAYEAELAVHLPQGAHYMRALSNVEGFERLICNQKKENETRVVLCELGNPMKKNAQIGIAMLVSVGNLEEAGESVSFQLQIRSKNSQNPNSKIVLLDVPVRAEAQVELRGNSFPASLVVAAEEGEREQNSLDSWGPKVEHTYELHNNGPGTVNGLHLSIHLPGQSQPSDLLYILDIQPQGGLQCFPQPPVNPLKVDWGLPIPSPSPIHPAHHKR
T1 sequence (P08514 891-1039 limits assumed): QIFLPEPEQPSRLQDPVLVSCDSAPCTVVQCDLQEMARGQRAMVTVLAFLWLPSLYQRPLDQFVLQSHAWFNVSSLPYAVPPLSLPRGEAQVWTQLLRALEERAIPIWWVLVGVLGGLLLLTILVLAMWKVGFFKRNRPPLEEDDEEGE

Structure (SMILES)	IC50 [1] [µM]	IC50 [2] [µM]	IC50 [3] [µM]	IC50 [4] [µM]
N=C(N)c1ccc(C(=O)Nc2ccc3c(c2)CCN(CC(=O)O)C3=O)cc1	0.003	–	–	–
CCCC(CC(=O)O)N1CCc2cc(OCc3ccc(C(=N)N)cc3)ccc2C1=O (stereo not drawn)	0.047	–	–	–
CCCC(C(=O)O)N1CCc2cc(OCc3ccc(C(=N)N)cc3)ccc2C1=O (stereo not drawn)	1.7	–	–	–
COc1ccc(C(CC(=O)O)N2CCc3cc(OCc4ccc(C(=N)N)cc4)ccc3C2=O)cc1 (stereo not drawn)	0.008	–	–	–
COCCCC(CC(=O)O)N1CCc2cc(OCc3ccc(C(=N)N)cc3)ccc2C1=O (stereo not drawn)	0.056	–	–	–
CCCCCC(CC(=O)O)N1CCc2cc(OCc3ccc(C(=N)N)cc3)ccc2C1=O (stereo not drawn)	–	0.024	0.04	0.1
N=C(N)c1ccc(COc2ccc3c(c2)CCN(CCC(=O)O)C3=O)cc1	0.32	–	–	–
CCCCCCC(CC(=O)O)N1CCc2cc(OCc3ccc(C(=N)N)cc3)ccc2C1=O (stereo not drawn)	0.041	0.041	0.08	0.31
COC(=O)c1ccc(C(CC(=O)O)N2CCc3cc(OCc4ccc(C(=N)N)cc4)ccc3C2=O)cc1 (stereo not drawn)	0.006	–	–	–
CCC(CC(=O)O)N1CCc2cc(OCc3ccc(C(=N)N)cc3)ccc2C1=O (stereo not drawn)	0.046	–	–	–
CCOCCCC(CC(=O)O)N1CCc2cc(OCc3ccc(C(=N)N)cc3)ccc2C1=O (stereo not drawn)	–	0.061	0.073	0.1
CCCC(CN1CCc2cc(OCc3ccc(C(=N)N)cc3)ccc2C1=O)C(=O)O (stereo not drawn)	1.8	–	–	–
CCCCC(CC(=O)O)N1CCc2cc(OCc3ccc(C(=N)N)cc3)ccc2C1=O (stereo not drawn)	0.04	–	–	–
COCCOCC(CC(=O)O)N1CCc2cc(OCc3ccc(C(=N)N)cc3)ccc2C1=O (stereo not drawn)	0.09	–	–	–
N=C(N)c1ccc(COc2ccc3c(c2)CCN(C(CC(=O)O)c2ccccc2)C3=O)cc1 (stereo not drawn)	0.007	–	–	–
CC1(C)SSCCC(=O)N[C@@H](CCCNC(=N)N)C(=O)NCC(=O)N[C@@H](CC(=O)O)C(=O)N[C@@H](Cc2c[nH]c3ccccc23)C(=O)N2CCC[C@H]2C(=O)N[C@@H]1C(N)=O ([Mpa]RGDWP[Pen]-NH2; disulfide 1-7)	0.1	–	–	–
